BindingDB's records for doi:10.1124/jpet.104.073668 (Temple University, 2005)

Key:
Mu-type opioid receptor = Mu-type opioid receptor (Rattus norvegicus, UniProt P33535)
[1] = target: Kappa-type opioid receptor (Homo sapiens, UniProt P41145)
Chain of Kappa-type opioid receptor (P41145 whole entry): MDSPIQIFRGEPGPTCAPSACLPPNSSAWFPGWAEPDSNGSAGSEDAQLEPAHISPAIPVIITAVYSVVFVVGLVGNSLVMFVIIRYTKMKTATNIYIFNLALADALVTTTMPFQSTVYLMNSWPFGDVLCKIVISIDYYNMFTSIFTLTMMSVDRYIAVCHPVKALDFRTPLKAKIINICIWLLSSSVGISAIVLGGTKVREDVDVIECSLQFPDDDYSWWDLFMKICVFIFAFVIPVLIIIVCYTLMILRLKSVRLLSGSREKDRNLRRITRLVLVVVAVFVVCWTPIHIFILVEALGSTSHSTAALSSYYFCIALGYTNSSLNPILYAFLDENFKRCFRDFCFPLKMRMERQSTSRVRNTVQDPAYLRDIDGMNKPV

Chain of Mu-type opioid receptor (P33535 whole entry): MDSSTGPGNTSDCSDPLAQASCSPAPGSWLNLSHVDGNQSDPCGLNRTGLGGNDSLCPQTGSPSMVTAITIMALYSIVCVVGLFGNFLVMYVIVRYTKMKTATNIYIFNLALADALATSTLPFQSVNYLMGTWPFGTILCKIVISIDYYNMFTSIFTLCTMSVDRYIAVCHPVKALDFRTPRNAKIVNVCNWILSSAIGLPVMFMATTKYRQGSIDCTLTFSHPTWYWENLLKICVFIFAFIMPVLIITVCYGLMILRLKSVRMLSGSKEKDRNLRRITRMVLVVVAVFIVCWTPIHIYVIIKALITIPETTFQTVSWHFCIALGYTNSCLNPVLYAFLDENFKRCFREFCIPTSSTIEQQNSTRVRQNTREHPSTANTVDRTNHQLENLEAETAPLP

CN(C(=O)C=Cc1ccoc1)C1CCC2(O)C3Cc4ccc(O)c5c4C2(CCN3CC2CC2)C1O5 (configuration not stated) [CAS_213055] was tested, and the Ki (Mu-type opioid receptor) was 5.2 nM.
COC(=O)C12CN(C)CC(C(=O)OC)(C1=O)C(c1cccc(F)c1)N(C)C2c1cccc(F)c1 (configuration not stated) was tested, and the Ki [1] was 248 nM.
